Test results taken from patent publication US10280159B2 (AbbVie Deutschland GmbH & Co. KG, priority 2015, dated 2019).
Structures can show the parent of a compound that is named as a salt.

How the values were obtained:
Type in all cases: cell-based
human S1PR3 = biological target: T1, human S1PR3 (Homo sapiens, UniProt Q99500); assay: Intracellular Ca2+ release (FLIPR) agonist potency, S1P3; conditions: recombinant CHO-K1 cells expressing human S1PR3, aequorin, Gq/i5; Calcium 5 FLIPR; read-out: S1P3 EC50
T1 construct: host or cells: CHO-K1
Protocol: Agonistic activity was measured using the method described below.
Intracellular Ca^2+ Release
Agonist potency and intrinsic activity was assessed by measurement of intracellular Ca^2+ release. Recombinant CHO-K1 cells (Euroscreen, Brussels, Belgium) expressing human S1PR5, S1PR1, S1PR3 or S1PR4 receptors, aequorin, and GTP binding protein Gq/i5 were cultured using a medium containing nutrient mixture F-12 Ham (Sigma-Aldrich) with 10% FBS, and 100 μg/mL gentamicin and equilibrated at 5% CO2.
Phospho-fingolimod was used as positive control. Antagonists were pre-incubated for 10 min with cells before addition of the agonist (phospho-fingolimod at EC80). Measurements were performed using a fluorometric imaging plate reader FLIPR®tetra (Molecular Devices). Agonist at the human S1P receptors were characterized by deducing EC50 (potency) values from a nonlinear fit to the measured fluorescence raw data after normalization to the reference agonist (phospho-fingolimod) curve.

human S1PR1 = biological target: T2, human S1PR1 (Homo sapiens, UniProt P21453); assay: Intracellular Ca2+ release (FLIPR) agonist potency, S1P1; conditions: recombinant CHO-K1 cells expressing human S1PR1, aequorin, Gq/i5; Calcium 5 FLIPR; read-out: S1P1 EC50
T2 construct: host or cells: CHO-K1
Outline: (§1)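 Recombinant CHO-K1 cells carrying the human receptor together with aequorin and the chimeric G protein Gq/i5 are exposed to test agonist, and Ca2+ mobilization is recorded by fluorometric imaging plate reader. Potency is derived from curve fitting relative to phospho-fingolimod.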

human S1PR5 = biological target: T3, human S1PR5 (Homo sapiens, UniProt Q9H228); assay: Intracellular Ca2+ release (FLIPR) agonist potency, S1P5; conditions: recombinant CHO-K1 cells expressing human S1PR5, aequorin, Gq/i5; Calcium 5 FLIPR; read-out: S1P5 EC50 range
T3 construct: host or cells: CHO-K1
Outline: as §1

human S1PR4 = biological target: T4, human S1PR4 (Homo sapiens, UniProt O95977); assay: Intracellular Ca2+ release (FLIPR) agonist potency, S1P4; conditions: recombinant CHO-K1 cells expressing human S1PR4, aequorin, Gq/i5; Calcium 5 FLIPR; read-out: S1P4 EC50
T4 construct: host or cells: CHO-K1
T4 sequence (O95977 1-384): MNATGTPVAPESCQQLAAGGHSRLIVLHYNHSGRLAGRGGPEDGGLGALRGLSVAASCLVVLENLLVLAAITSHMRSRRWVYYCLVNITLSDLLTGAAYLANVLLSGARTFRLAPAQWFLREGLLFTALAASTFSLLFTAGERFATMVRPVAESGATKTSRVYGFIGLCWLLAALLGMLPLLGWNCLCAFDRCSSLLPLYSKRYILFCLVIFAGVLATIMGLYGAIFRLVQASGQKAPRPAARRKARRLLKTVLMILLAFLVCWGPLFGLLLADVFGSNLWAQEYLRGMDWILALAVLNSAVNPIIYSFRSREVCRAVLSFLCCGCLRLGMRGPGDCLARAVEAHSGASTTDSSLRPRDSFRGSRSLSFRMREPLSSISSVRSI
Outline: as §1

T1 sequence (Q99500 whole entry): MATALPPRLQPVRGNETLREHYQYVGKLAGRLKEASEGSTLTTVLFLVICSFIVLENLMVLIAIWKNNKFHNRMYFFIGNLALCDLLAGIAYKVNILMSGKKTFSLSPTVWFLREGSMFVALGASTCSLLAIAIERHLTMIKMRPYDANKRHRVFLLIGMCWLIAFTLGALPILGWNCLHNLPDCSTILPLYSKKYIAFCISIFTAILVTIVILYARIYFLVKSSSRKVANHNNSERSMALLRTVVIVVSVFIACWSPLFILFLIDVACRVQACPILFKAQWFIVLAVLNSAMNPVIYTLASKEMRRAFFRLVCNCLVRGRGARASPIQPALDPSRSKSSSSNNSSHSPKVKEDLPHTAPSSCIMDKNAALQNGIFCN
T3 sequence (Q9H228 whole entry): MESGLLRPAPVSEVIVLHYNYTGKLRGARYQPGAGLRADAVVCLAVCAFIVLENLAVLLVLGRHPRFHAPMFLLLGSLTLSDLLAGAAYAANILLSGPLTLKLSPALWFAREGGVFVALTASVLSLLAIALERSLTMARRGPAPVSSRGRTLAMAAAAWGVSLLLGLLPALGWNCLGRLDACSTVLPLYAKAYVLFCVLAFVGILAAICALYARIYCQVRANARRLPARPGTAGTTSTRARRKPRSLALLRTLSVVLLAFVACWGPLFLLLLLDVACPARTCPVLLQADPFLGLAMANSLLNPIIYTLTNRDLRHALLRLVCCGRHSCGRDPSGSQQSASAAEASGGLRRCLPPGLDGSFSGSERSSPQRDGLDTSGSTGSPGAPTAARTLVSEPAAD
T2 sequence (P21453 whole entry): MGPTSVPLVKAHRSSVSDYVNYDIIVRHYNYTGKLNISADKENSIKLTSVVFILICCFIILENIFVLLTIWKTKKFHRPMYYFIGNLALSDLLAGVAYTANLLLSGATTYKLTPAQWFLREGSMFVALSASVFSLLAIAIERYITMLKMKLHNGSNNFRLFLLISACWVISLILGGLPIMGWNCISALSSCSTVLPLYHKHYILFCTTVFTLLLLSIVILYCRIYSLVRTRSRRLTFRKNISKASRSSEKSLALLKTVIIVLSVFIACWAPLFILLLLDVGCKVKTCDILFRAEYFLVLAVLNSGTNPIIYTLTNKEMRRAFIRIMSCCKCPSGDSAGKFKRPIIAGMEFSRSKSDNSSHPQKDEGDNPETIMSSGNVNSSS

SMILES	EC50 (human S1PR3) [nM]	EC50 (human S1PR1) [nM]	EC50 (human S1PR5) [nM]	EC50 (human S1PR4) [nM]
CN(CC(=O)O)C1COc2cc(-c3ccc(OCc4ccccc4)cc3)ccc2C1 (centres unmarked) [Compound 238, 2-((7-(4-(benzyloxy)phenyl)chroman-3-yl)(methyl)amino)acetic acid]	> 1000	< 1000	10 to 100	> 1000
O=C(O)C1CCN(C2CCc3cc(OCc4c(Cl)cccc4Cl)ccc3C2)C1 (centres unmarked) [Compound 74, 1-(6-((2,6-dichlorobenzyl)oxy)-1,2,3,4-tetrahydronaphthalen-2-yl)pyrrolidine-3-carboxylic acid]	> 1000	> 1000	< 10	< 1000
O=C(O)C1CN(C2CCc3cc(OCc4c(Cl)cccc4Cl)ccc3C2)C1 (centres unmarked) [Compound 4, 1-(6-((2,6-dichlorobenzyl)oxy)-1,2,3,4-tetrahydronaphthalen-2-yl)azetidine-3-carboxylic acid]	> 1000	> 1000	< 10	–
O=C(O)CCNC1CCc2cc(OCc3ccccc3)ccc2C1 (centres unmarked) [Compound 7, 3-((6-(benzyloxy)-1,2,3,4-tetrahydronaphthalen-2-yl)amino)propanoic acid]	> 1000	> 1000	10 to 100	–
O=C(O)CCNC1CCc2cc(OCc3c(Cl)cccc3Cl)ccc2C1 (centres unmarked) [Compound 9, 3-((6-((2,6-dichlorobenzyl)oxy)-1,2,3,4-tetrahydronaphthalen-2-yl)amino)propanoic acid]	> 1000	> 1000	< 10	–
CCc1cccc(Cl)c1COc1ccc2c(c1)CCC(NCCC(=O)O)C2 (centres unmarked) [Compound 6, 3-((6-((2-chloro-6-ethylbenzyl)oxy)-1,2,3,4-tetrahydronaphthalen-2-yl)amino)propanoic acid]	> 1000	< 1000	< 10	–
O=C(O)CCNC1CCc2cc(OCc3ccc(Cl)cc3)ccc2C1 (centres unmarked) [Compound 11, 3-((6-((4-chlorobenzyl)oxy)-1,2,3,4-tetrahydronaphthalen-2-yl)amino) propanoic acid]	> 1000	> 1000	1000 to 10000	–
CC1(C(=O)O)CN([C@@H]2COc3cc(OCc4c(Cl)cccc4Cl)ccc3C2)C1 [Compound 138, (S)-1-(7-((2,6-dichlorobenzyl)oxy)chroman-3-yl)-3-methylazetidine-3-carboxylic acid]	–	> 1000	< 10	> 1000
O=C(O)C1CN(C2COc3cc(OCc4ccc(C(F)(F)F)c(F)c4)ccc3C2)C1 (centres unmarked) [Compound 103, 1-[7-[[3-fluoro-4-(trifluoromethyl)phenyl]methoxy]chroman-3-yl]azetidine-3-carboxylic acid]	–	> 1000	1000 to 10000	> 1000
CCc1cccc(Cl)c1COc1ccc2c(c1)CCC(N1CC(C(=O)N(C)OC)C1)C2 (centres unmarked) [Compound 217, 1-[6-[(2-chloro-6-ethyl-phenyl)methoxy]tetralin-2-yl]-N-methoxy-N-methyl-azetidine-3-carboxamide]	–	> 1000	100 to 1000	> 1000
O=C(O)C1CCN(C2COc3cc(OCc4c(Cl)cccc4Cl)ccc3C2)CC1 (centres unmarked) [Compound 110, 1-[7-[(2,6-dichlorophenyl)methoxy]chroman-3-yl]piperidine-4-carboxylic acid; Salt with 2,2,2-trifluoroacetic acid]	–	> 1000	10 to 100	< 1000
O=C(O)C12CC1CCN2C1CCc2cc(OCc3c(Cl)cccc3Cl)ccc2C1 (centres unmarked) [Compound 36, 2-(6-((2,6-dichlorobenzyl)oxy)-1,2,3,4-tetrahydronaphthalen-2-yl)-2-azabicyclo[3.1.0]hexane-1-carboxylic acid]	–	> 1000	100 to 1000	> 1000
O=C(O)C1CN(C2COc3cc(OCC4CC4)ccc3C2)C1 (centres unmarked) [Compound 231, 1-[7-(cyclopropylmethoxy)chroman-3-yl]azetidine-3-carboxylic acid]	–	> 1000	1000 to 10000	> 1000
O=C(O)CNC1COc2cc(-c3ccc(OCc4ccccc4)cc3)ccc2C1 (centres unmarked) [Compound 237, 2-((7-(4-(benzyloxy)phenyl)chroman-3-yl)amino)acetic acid]	–	> 1000	< 10	> 1000
CCc1cccc(Cl)c1COc1ccc2c(c1)CCC(NCC1(C(=O)O)CC1)C2 (centres unmarked) [Compound 76, 1-(((6-((2-chloro-6-ethylbenzyl)oxy)-1,2,3,4-tetrahydronaphthalen-2-yl)amino)methyl)cyclopropanecarboxylic acid]	–	< 1000	< 10	< 1000
Cc1ccc(F)cc1COc1ccc2c(c1)CCC(OCC(=O)O)C2 (centres unmarked) [Compound 155, 2-[6-[(5-fluoro-2-methyl-phenyl)methoxy]tetralin-2-yl]oxyacetic acid]	–	> 1000	1000 to 10000	> 1000
O=C(O)CCOC1CCc2cc(OCc3ccc(F)cc3)ccc2C1 (centres unmarked) [Compound 194, 3-[6-[(4-fluorophenyl)methoxy]tetralin-2-yl]oxypropanoic acid]	–	> 1000	1000 to 10000	> 1000
O=C(O)CCNC1CCc2ccc(OCc3c(Cl)cccc3Cl)cc2C1 (centres unmarked) [Compound 10, 3-((7-((2,6-dichlorobenzyl)oxy)-1,2,3,4-tetrahydronaphthalen-2-yl)amino)propanoic acid]	> 1000	> 1000	1000 to 10000	–
O=C(O)COC1CCc2cc(OCc3ccc(Cl)cc3)ccc2C1 (centres unmarked) [Compound 209, 2-[6-[(4-chlorophenyl)methoxy]tetralin-2-yl]oxyacetic acid]	–	> 1000	1000 to 10000	> 1000
O=C(O)COC1CCc2cc(OCc3ccccc3OC(F)(F)F)ccc2C1 (centres unmarked) [Compound 208, 2-[6-[[2-(trifluoromethoxy)phenyl]methoxy]tetralin-2-yl]oxyacetic]	–	> 1000	100 to 1000	> 1000
O=C(O)CCOC1CCc2cc(OCc3ccc(OC(F)(F)F)cc3)ccc2C1 (centres unmarked) [Compound 185, 3-[6-[[4-(trifluoromethoxy)phenyl]methoxy]tetralin-2-yl]oxypropanoic acid]	–	> 1000	1000 to 10000	> 1000
O=C(O)C1CN(C2COc3cc(OCc4c(Cl)cccc4Cl)c(Br)cc3C2)C1 (centres unmarked) [Compound 221, 1-[6-bromo-7-[(2,6-dichlorophenyl)methoxy]chroman-3-yl]azetidine-3-carboxylic acid]	–	> 1000	10 to 100	> 1000
Cc1ccc(Cl)c(COc2ccc3c(c2)CCC(OCC(=O)O)C3)c1F (centres unmarked) [Compound 150, 2-[6-[(6-chloro-2-fluoro-3-methyl-phenyl)methoxy]tetralin-2-yl]oxyacetic acid]	–	> 1000	1000 to 10000	> 1000
CN(CC(=O)O)C1COc2cc(OCc3ccc(OCc4cccc(F)c4F)cc3)ccc2C1 (centres unmarked) [Compound 133, N-(7-((4-((2,3-difluorobenzyl)oxy)benzyl)oxy)chroman-3-yl)-N-methylglycine]	–	< 1000	< 10	> 1000
CCc1cccc(F)c1COc1ccc2c(c1)OCC(NC1(CC(=O)O)CCCC1)C2 (centres unmarked) [Compound 117, 2-(1-((7-((2-ethyl-6-fluorobenzyl)oxy)chroman-3-yl)amino)cyclopentyl) acetic acid]	–	> 1000	< 10	< 1000
O=C(O)C1CN(C2COc3cc(OCc4cc(Cl)ccc4Cl)ccc3C2)C1 (centres unmarked) [Compound 52, 1-(7-((2,5-dichlorobenzyl)oxy)chroman-3-yl)azetidine-3-carboxylic acid]	–	> 1000	1000 to 10000	> 1000
Cc1ccc(COc2ccc3c(c2)OCC(N2CC(C(=O)O)C2)C3)c(F)c1 (centres unmarked) [Compound 88, 1-[7-[(2-fluoro-4-methyl-phenyl)methoxy]chroman-3-yl]azetidine-3-carboxylic acid]	–	> 1000	1000 to 10000	> 1000
CCCc1ccc(COc2ccc3c(c2)OCC(N2CC(C(=O)O)C2)C3)c(OC)c1 (centres unmarked) [Compound 148, 1-(7-((2-methoxy-4-propylbenzyl)oxy)chroman-3-yl)azetidine-3-carboxylic acid]	–	> 1000	1000 to 10000	> 1000
